Source: paper PMC10285738, “Identification of macrocyclic peptides which activate bacterial cylindrical proteases” (RSC Medicinal Chemistry, 2023)
“Also recorded” adds a separate entry of the source.

What was measured:
Sa.ClpP [1] = biological target: T1, Sa.ClpP (Staphylococcus aureus, UniProt Q2G036); test: Dose-response of beta-casein degradation by Sa.ClpP; format: biochemical, S. aureus; details: two-fold dilution series in DMSO, highest concentration 200 µM, densitometry, non-linear fit; three independent experiments; Fig. 4B; read-out: EC50 (effective dose), Sa.ClpP-dependent digestion of beta-casein
T1 construct: Strep-tag (C); made in house; host or cells: E. coli SG1146a (lacks endogenous ClpP)
Description: (§1) Beta-casein degradation by Ec.ClpP or Sa.ClpP
(§2) All concentrations are given as final concentrations. Ligands were incubated at 200 µM in […]
(§3) Aliquots were drawn at the
(§4) Gels were run at constant voltage […]
(§5) concentration was 200 µM. The results from densitometric analysis were plotted in Graphpad […]
(§6) Data is represented as mean ± SD of three independent experiments. […]

Ec.ClpP [2] = details: 200 µM ligand, ClpP 1.0 µM, 24 h at 37 °C, SDS-PAGE densitometry, at least three independent experiments, Fig. 3D
Description: presence of E. coli ClpP or S. aureus ClpP (1.0 µM), and bovine beta-casein (Sigma-Aldrich –
catalogue number C6905, 5.0 µM or 3 µM) in Tris HCl buffer (100 mM, pH 7.6) with KCl (100 mM)
or HEPES buffer (100 mM, pH 7) with NaCl (150 mM) at 37 °C. Aliquots were drawn at the
indicated time points, quenched with SDS-loading buffer and heated to 90 °C for 5 min. Beta-
casein digestion was visualized by non-reducing Tris-glycine SDS-PAGE with 12 % acrylamide
and 4 % stacking gel or reducing Bolt 4-12% Bis-Tris Plus gels. Gels were run at constant voltage
(160-200 V) for 60 min and visualized with Coomassie brilliant blue dye. Protein bands were
quantified by densitometry using ImageJ from at least three independent experiments.
A two-fold dilution series in DMSO was performed to keep DMSO content identical. Highest
Prism and a non-linear fit was applied to estimate the EC50. Data is represented as mean ± SD of three independent experiments.

Sa.ClpP [3] = biological target: T1, Sa.ClpP; test: FtsZ degradation by Sa.ClpP, SDS-PAGE; format: biochemical, S. aureus; details: 200 µM, ADEP2 at 10 µM, Sa. FtsZ 4.0 µM, 24 h, SDS-PAGE densitometry, at least three independent experiments, Fig. 4D
From the text: Lastly, we set out to answer to what extent ADEP and other allosteric activators of ClpP resemble the activation process of ClpX. To this end, we set up a biochemical assay and monitored the digestion of FtsZ, an essential protein for cell division, which is the major determinant for the filamentation phenotype induced by ADEP-activated ClpP.[17] […] We performed docking studies of the identified macrocycles into the same pocket where ADEP binds (see ESI ^† for full details).
(§7) Walther et al. Supporting Information
FITC casein degradation rate
(§8) All concentrations are given as final concentrations. Ligands were incubated at 200 µM in the […]
The linear part of the fluorescence curve was used to determine the relative degradation rate. Data analysis was performed by OriginPro […]
as §1, §2, §3, §4, §5
Data is represented as mean ± SD of three independent experiments.
FtsZ degradation by Sa.ClpP […]
at a final concentration of 4.0 µM. […]
casein degradation assay. […]
SD of duplicates of at least two independent experiments. […]
equilibrated Superdex 200 Increase 10/300 GL column (Cytiva). Stabilization of Sa.ClpP in […]

Ec.ClpP [4] = details: 200 µM peptide, E. coli ClpP 0.5 µM, FITC-casein 1.8 µM + beta-bovine casein 4.8 µM, Tris HCl 100 mM pH 7.6, KCl 100 mM, 24 h at 37 °C, exc. 483 nm, em 530 nm; duplicates of at least two independent experiments; vs DMSO
Description: Next, we screened for enzymatic activation of ClpP to quickly assess the chemical library for binding and understand whether IGF-bearing macrocyclic peptides could modulate ClpP enzymatic function. Modulation of ClpP was assessed using a biochemical assay monitoring the enzymatic function of the protease based on previously reported successes for the identification of allosteric activators of ClpP.[9] […] FITC-casein, a protein labeled with fluorescein to the extent of self-quenching, is a suitable substrate for this assay, as it can only enter the proteolytic core upon apical pore opening and is indirectly a measure for the conformational state of the protease.[2,10] Enzymatic degradation of FITC-casein alleviates self-quenching giving rise to an increased fluorescence intensity and an easy readout for our purpose to identify any ligand that positively modulates the enzymatic activity of recombinant E. coli ClpP (Ec.ClpP).
Ec.ClpP was incubated for 24 h at 37 °C in the presence of a peptide library, or vehicle (DMSO) and fluorescence intensity was measured thereafter (Fig. 2C and S1 ^†). […] This was reproducibly confirmed in three independent experiments (varying the batch of enzyme).

[5] = FITC-casein fluorescence with/without Ec.ClpP (false-positive control); details: 200 µM, with vs without Ec.ClpP, 24 h at 37 °C, Fig. S2
Description: as §7
Protein purification and isolation […]
expressed in E. coli C41 (DE3) cells. A single colony was incubated overnight in 2xYT media containing ampicillin (0.1 mg/mL) at 37 °C. Subsequently 10 mL of the overnight inoculum was […]
applied to a Ni-NTA affinity column (GE Healthcare). The column was washed with an increasing […]
Protein containing fraction
10 mM MgCl2, glycerol 10 % (v/v)). The pure protein sample was obtained after size exclusion […]
0.5 mM EDTA, 100 mM KCl, 10 % glycerol).
After 18 hours of growth at 25 °C, cells […]
mM Tris-HCl, 1 mM EDTA, pH 8).
Here, the protein was eluted with an isocratic gradient of buffer containing 50 mM biotin. Protein was concentrated and buffer […]
stocks were stored in storage buffer at -20 °C. For long term storage, samples were stored at -80 […]
FITC casein degradation screen
as §8
samples is subtracted from all samples.

Sa.ClpP [6] = biological target: T1, Sa.ClpP; test: Thermal shift assay (differential scanning fluorimetry); format: binding; details: S. aureus ClpP 5 µM, ligand 200 µM, HEPES 100 mM pH 7, NaCl 150 mM, sypro orange 5x, 30-90 °C in 0.5 °C increments; mean ± SD of duplicates of at least two independent experiments
From the text: All concentrations are given as final concentrations. […]
real-time qPCR (Bio-Rad CF X96).
SD of duplicates of at least two independent experiments.
equilibrated Superdex 200 Increase 10/300 GL column (Cytiva). […]

Sa.ClpP [7] = biological target: T1, Sa.ClpP; test: beta-casein degradation by Sa.ClpP, SDS-PAGE; format: biochemical, S. aureus; details: ligands at 200 µM, ADEP2 at 10 µM, ClpP 1.0 µM, 24 h at 37 °C, Fig. 4A
Description: as §1, §2, §3, §4, §5, §6

ClpP = details: in words, through another mechanism; cited from earlier work
Description: Modulation of ClpP was assessed using a biochemical assay monitoring the enzymatic function of the protease based on previously reported successes for the identification of allosteric activators of ClpP.[9]

Sa.ClpP [8] = biological target: T1, Sa.ClpP; test: Gel filtration (SEC) of ClpP oligomeric state; parameters: species or system S. aureus; details: Sa.ClpP 1 mg/mL, ligand 200 µM, destabilizing buffer Tris-HCl 100 mM pH 7.6, 100 mM KCl, overnight at 32 °C; Superdex 200

T1 sequence (Q2G036 whole entry): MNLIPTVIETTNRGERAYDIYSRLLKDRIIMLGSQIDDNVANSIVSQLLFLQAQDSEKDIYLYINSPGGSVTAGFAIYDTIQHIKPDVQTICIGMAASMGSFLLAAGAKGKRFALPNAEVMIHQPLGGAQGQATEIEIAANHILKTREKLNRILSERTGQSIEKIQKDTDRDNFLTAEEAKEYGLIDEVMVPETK

CC[C@H](C)[C@@H]1NC(=O)CNC(=O)[C@@H](NC(C)=O)CSCC(=O)CSC[C@@H](C(N)=O)NC(=O)CNC(=O)[C@H](Cc2ccccc2)NC(=O)CNC1=O [P4-B]
EC50 (Sa.ClpP [1]): > 100 µM | Ec.ClpP-dependent beta-casein digestion (Ec.ClpP [2]): control of Ec.ClpP function was confirmed by SDS-PAGE analysis of beta-casein digestion | Sa.ClpP-dependent Sa.FtsZ digestion (Sa.ClpP [3]): also induced the digestion of FtsZ, yet less efficiently | increase in fluorescence intensity / enzymatic activation of Ec.ClpP (FITC-casein) (Ec.ClpP [4]): significant increase of fluorescence intensity over the DMSO-treated sample | fluorescence signal in presence or absence of Ec.ClpP (false-positive check) [5]: did not exhibit this behaviour | apparent increase in melting temperature of Sa.ClpP (Sa.ClpP [6]): 0.6 ± 0.2 °C | activation of Sa.ClpP (beta-casein digestion) (Sa.ClpP [7]): able to activate the enzymatic function of Sa.ClpP

CC(C)C[C@H](NC(=O)[C@H](Cc1ccccc1)NC(=O)c1cnccn1)B(O)O [bortezomib]
effect on enzymatic function of ClpP homologues (ClpP): able to increase enzymatic function of ClpP homologues

CCCC/C=C/C(=O)N[C@@H](Cc1cc(F)cc(F)c1)C(=O)OC [compound 2, reference compound]
Sa.ClpP-dependent Sa.FtsZ digestion (Sa.ClpP [3]): activated Sa.ClpP, and FtsZ was digested | stabilization/retention of tetradecameric Sa.ClpP (Sa.ClpP [8]): able to retain the tetradecamer in Tris-HCl; also recorded: able to rescue and stabilize the tetradecameric structure of Sa.ClpP
